From patent US20100021954A1, “High capacity nanoparticulate immobilization surface” (priority 2008, published 2010)

Target: T1, streptavidin (Streptomyces avidinii, UniProt P22629)
T1 construct: purchased Sigma-Aldrich S4762
Experiment: fl-biotin binding on SA previously immobilized on a PGL coated Epic plate
Details: SA immobilized at 1.5 micrograms/mL with KH2PO4 on PGL Epic plate (PGL formulation of Example 4A)
Procedure: Materials: Fluorescein-Biotin from Sigma-Aldrich ref. B943 1; 0.01 M PBS (phosphate buffer); 0.0027 M potassium chloride; and 0.137 M sodium chloride pH 7.4; and dimethylsulfoxide (DMSO).
Preparation of 800 nM fl-biotin solution: 16 microliters of 500 μM fl-biotin solution in DMSO were added to 10 mL of PBS and mixed.
Preparation of PBS/DMSO solution: 16 microliters of DMSO were added to […] of PBS.
Each well of the Epic® plate from Examples 7A, 7B, 9, and 10 was rinsed three (3) times with water using an automatic pipettor. Then 75 microliters of the PBS/DMSO solution were added to each well and the alignment of the optical parts was performed. The plate was left undisturbed until reaching a stable baseline. After reaching a stable base line, 75 microliters of the fl-biotin solution were added to each well and mixed continuously for 2 mins using an automatic pipettor. In the course of the mixing, the binding curve was recorded in real time.
Materials: Unlabeled Streptavidine; KH2PO4 from Sigma-Aldrich ref. P5504; and PBS buffer. First, a […] KH2PO4 solution was prepared and its pH was adjusted to 8. Then 75 microliters of this solution were added to each well from a PGL Epic® coated plate prepared using PGL formulation of Example 4A. The alignment of the optical parts was performed and the plate was left undisturbed until a stable baseline was reached. […]

T1 sequence (P22629 25-183): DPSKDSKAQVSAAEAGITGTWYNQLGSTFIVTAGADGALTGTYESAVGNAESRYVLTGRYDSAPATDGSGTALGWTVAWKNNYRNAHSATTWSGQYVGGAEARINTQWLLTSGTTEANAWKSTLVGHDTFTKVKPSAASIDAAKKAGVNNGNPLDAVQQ

SMILES: O=C(CCCCCNC(=O)CCCC[C@@H]1SC[C@@H]2NC(=O)N[C@@H]21)NCCCCCNC(=S)Nc1ccc2c(c1)C(=O)OC21c2ccc(O)cc2Oc2cc(O)ccc21 [fl-biotin, Fluorescein-Biotin]
- binding of fl-biotin on immobilized SA: easily observed
